# Experimental data: ChEMBL document CHEMBL1132796, “Multistep solution-phase parallel synthesis of spiperone analogues” (Bioorg Med Chem Lett, 2000)
# Legend:
# [1] = biological target: T1, 5-hydroxytryptamine receptor 2A (Homo sapiens, UniProt P28223); assay: Compound was evaluated for its inverse agonist activity against 5-hydroxytryptamine 2A receptor; assay type: functional
# [2] = biological target: T1, 5-hydroxytryptamine receptor 2A; assay: Compound was evaluated for its binding against 5-hydroxytryptamine 2A receptor
# T1 sequence (P28223 whole entry): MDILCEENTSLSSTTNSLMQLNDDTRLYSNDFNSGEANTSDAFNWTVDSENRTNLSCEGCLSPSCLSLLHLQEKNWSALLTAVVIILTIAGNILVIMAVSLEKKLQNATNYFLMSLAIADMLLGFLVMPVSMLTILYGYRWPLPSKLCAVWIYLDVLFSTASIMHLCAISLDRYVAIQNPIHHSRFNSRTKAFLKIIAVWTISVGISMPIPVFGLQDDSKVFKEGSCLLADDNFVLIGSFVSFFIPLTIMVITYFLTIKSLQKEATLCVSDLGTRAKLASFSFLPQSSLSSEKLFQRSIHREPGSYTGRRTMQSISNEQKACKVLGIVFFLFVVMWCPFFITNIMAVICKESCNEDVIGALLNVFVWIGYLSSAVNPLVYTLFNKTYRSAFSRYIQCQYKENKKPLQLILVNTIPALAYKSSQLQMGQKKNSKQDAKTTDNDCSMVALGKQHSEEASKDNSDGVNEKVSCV
compound,measurement,setting,value
CC(C)NC(=O)N(C1CCCCCCC1)C1CCN(CCCOc2ccc(F)cc2)CC1,IC50,[1],79.4 nM
CCC(=O)N(C1CCCCCCC1)C1CCN(CCCOc2ccc(F)cc2)CC1,IC50,[1],12.6 nM
same,Ki,[2],20 nM
